Like-named read-outs stand apart in the source and are kept apart here. Marks after values point to notes of the source that are not given here.
What was measured:
[1] = system: H4 human neuroglioma cells; experiment: Secondary screening dose response, toxicity to H4 cells; assay type: cell-based; conditions: Homo sapiens; 72 h; approximated from dose-response curves
[2] = system: B. mandrillaris trophozoites; experiment: Drug combination dose matrices, trophozoite viability (EOHSA model); assay type: cell-based, Balamuthia mandrillaris; conditions: 72 h
Experimental: Experiments measuring the effect of drug combinations were carried out similarly to the dose-response experiments described above. B. mandrillaris trophozoites were seeded into opaque 96-well plates (Corning) at a density of 4,000 amoebae per well and then treated with concentrations of nitroxoline that differed across the rows of each plate and with concentrations of either miltefosine or pentamidine isethionate that differed down the columns to generate 7-by-7 dose combination matrices. Final drug concentrations ranged from 0.5 to 10 µM, from 10 to 100 µM, and from 1 to 100 µM for nitroxoline, miltefosine, and pentamidine isethionate, respectively. After incubation with drug or vehicle was performed for 72 h, CTG was added to all assay wells and luminescence was measured with a Promega Glomax-Multi+ plate reader. The percent effect of each drug combination was calculated as the reduction in luminescence value relative to vehicle-only controls. The additive effect of drug combinations was assessed using the excess over highest single agent (EOHSA) model ([76], [77]). […] Drug combination experiments were performed with three independent replicates.

[3] = system: B. mandrillaris trophozoites; experiment: Side-by-side dose response, trophozoite viability; assay type: cell-based, Balamuthia mandrillaris; conditions: 72 h
Experimental: (§1) B. mandrillaris trophozoites were seeded at 4,000 amoebae per well into opaque and clear-bottom 96-well plates (Corning). Homogenous populations of B. mandrillaris cysts generated by galactose induction were seeded at 4,000 amoebae per well into opaque 96-well plates. HFF-1 (fibroblast), H4 (glial), U87 (glial), HEK-293T (kidney), and Hep-G2 (liver) cells were seeded at 3,000 cells per well in opaque 96-well plates 24 h prior to addition of drug. Stocks of nitroxoline (Selleck Chemicals) were dissolved in 100% DMSO at 10 mM. Stocks of azithromycin (Selleck Chemicals), pentamidine isethionate (Selleck Chemicals), and miltefosine (Selleck Chemicals) were dissolved in water at 10 mM. Drug stocks were serially diluted in water to generate 12-point dilution series, which were then used to treat assay wells containing B. mandrillaris or human cells at final concentrations ranging from 0.39 µM to 400 µM in 100-µl total well volumes. Control wells were treated with vehicle (DMSO or water) at concentrations corresponding to the final vehicle concentrations in each drug dilution series. After incubation for 72 h, 50 µl of CTG was added to all assay wells. Luminescence was measured with a Promega GloMax-Multi+ plate reader 2, 4, and […] after CTG addition. All dose-response experiments were performed with at least three independent biological replicates. IC50 values were determined as previously described. To quantify encystment under treated and untreated conditions, amoebae in individual assay wells were resuspended thoroughly and the number of cysts and number of trophozoites in 10-µl samples were counted by the use of a hemocytometer (SKC, Inc.). Cysts and trophozoites are morphologically distinct, making them simple to distinguish with bright-field microscopy (example images are shown in Fig. S1 in the supplemental material). Encystment assays were performed with three independent biological replicates.

[4] = Cytotoxicity dose response, H4; assay type: cell-based; conditions: human, H4 (glial) cells, unit not given in Table S3, drug concentrations in µM, read-out: CC50 H4 cell line
Experimental: as §1

[5] = system: B. mandrillaris cysts; experiment: Dose response, viability of preformed galactose-induced cysts; assay type: cell-based, Balamuthia mandrillaris; conditions: 72 h
Experimental: Following the findings of a previous study, encystment of B. mandrillaris was induced by galactose exposure ([74]). B. mandrillaris trophozoites were grown to log phase in axenic media, and galactose was added to reach a final concentration of 12% (vol/vol). Amoebae were cultured in the induction medium until trophozoites were no longer observed (approximately 10 days). Galactose-induced cysts transition back to trophozoites after approximately 3 days of incubation in galactose-free axenic medium. Therefore, all assays with cysts were completed in the induction medium. […] All incubation steps for B. mandrillaris growth were carried out at 37°C with 5% CO2.
as §1

[6] = system: HFF-1 human fibroblast cells; experiment: Secondary screening dose response, toxicity to HFF-1 cells; assay type: cell-based; conditions: Homo sapiens, HFF-1; 72 h; approximated from dose-response curves; read-out: HFF1 IC50
Experimental: (§2) Secondary screening of hit compounds consisted of dose-response experiments to measure the toxicity of each compound to B. mandrillaris trophozoites, HFF-1 human fibroblast cells, and H4 human neuroglioma cells. Four 384-well plates were prepared prior to addition of drug as follows: one opaque plate (Corning) seeded with 3,000 HFF-1 cells per well in 60 µl complete media, one opaque plate seeded with 2,000 H4 cells per well in 60 µl complete media, one opaque plate containing 30 µl axenic media, and one clear plate (Corning) containing 30 µl axenic media. Opaque plates were used to measure the viability of trophozoites in the CTG assay, and clear plates were used for microscopic examination of cyst formation. HFF-1 and H4 plates were seeded 24 h prior to drug addition. The selected primary screen hits were added from 10 mM DMSO stocks into wells of all four test plates to reach final concentrations ranging from 0.06 µM to 30 µM (10 concentrations, 2-fold serial dilution). Negative-control wells received concentrations of DMSO corresponding to the amount of DMSO in each tested drug well (reaching a maximum of 0.3% DMSO). B. mandrillaris trophozoites were resuspended in axenic media and added to the plates containing drug dilutions in axenic media at a density of 3,000 amoebae per well in a final volume of 60 µl media. All plates were incubated for 72 h. Throughout the incubation period, the clear-bottom B. mandrillaris plate was monitored for large-scale changes to population encystment in response to drug treatment. After the 72-h incubation, 30 µl of CTG reagent was added to all wells of the opaque assay plates and luminescence was measured with a Promega GloMax-Multi+ plate reader at 2, 4, and 8 h after CTG addition.

[7] = Cytotoxicity dose response, HFF-1; assay type: cell-based; conditions: human, HFF-1 (fibroblast) cells, unit not given in Table S3, drug concentrations in µM, read-out: CC50 HFF-1 cell line
Experimental: as §1

[8] = parameters: method as in PMID 3309832, PMID 118941, PMID 7251741; conditions: adults, 600 to 800 mg/day, cited from earlier work
[9] = system: B. mandrillaris trophozoites; experiment: Nitroxoline structure-activity relationship dose response (CellTiter Glo); assay type: cell-based, Balamuthia mandrillaris; conditions: Balamuthia mandrillaris, 72 h, 8-point dose response in triplicate; read-out: IC50
[10] = Cytotoxicity, mean of all cell lines; assay type: cell-based; conditions: human, U87, H4, HEK-293T, HFF-1 and Hep-G2 cell lines (mean of all), unit inferred
Experimental: as §1

[11] = Cytotoxicity dose response, HEK-293T; assay type: cell-based; conditions: human, HEK-293T (kidney) cells, unit not given in Table S3, drug concentrations in µM, read-out: CC50 HEK-293T cell line
Experimental: as §1

[12] = system: B. mandrillaris trophozoites; experiment: Secondary screening dose response, B. mandrillaris trophozoites; assay type: cell-based, Balamuthia mandrillaris; conditions: Balamuthia mandrillaris, 72 h, read-out: B. mandrillaris IC50
Experimental: as §2

[13] = system: B. mandrillaris; experiment: Recrudescence assay on HFF-1 monolayer after drug treatment; assay type: cell-based, Balamuthia mandrillaris; conditions: for concentration that completely eliminated B. mandrillaris populations: 72 h treatment, no recovery after 28 days of coculture
[14] = system: B. mandrillaris trophozoites; experiment: Primary human brain tissue explant infection model; assay type: cell-based, Balamuthia mandrillaris; conditions: 35 μM simultaneously with inoculation, removed at 20 h, evaluated at 96 h
[15] = system: B. mandrillaris trophozoites; experiment: microbe, parasite or virus in culture; assay type: cell-based, Balamuthia mandrillaris; conditions: Balamuthia mandrillaris, 72 h
[16] = Cytotoxicity dose response, U87; assay type: cell-based; conditions: human, U87 (glial) cells, unit not given in Table S3, drug concentrations in µM, read-out: CC50 U87 cell line
Experimental: as §1

[17] = system: B. mandrillaris; experiment: Encystment assay, counts of cysts and trophozoites; assay type: cell-based, Balamuthia mandrillaris; conditions: 72 h of treatment with different drug concentrations
Experimental: as §1

[18] = system: gliomas; parameters: method as in PMID 25074541; conditions: systemically delivered; cited from earlier work
[19] = Cytotoxicity dose response, Hep-G2; assay type: cell-based; conditions: human, Hep-G2 (liver) cells, unit not given in Table S3, drug concentrations in µM, read-out: CC50 Hep-G2 cell line
Experimental: as §1

[20] = system: B. mandrillaris; parameters: method as in PMID 15347743, PMID 23869955, PMID 16579814; conditions: in vitro; cited from earlier work
[21] = Balamuthia mandrillaris, read-out: IC50, B. mandrillaris trophozoites, 72 h
[22] = Balamuthia mandrillaris, read-out: IC50, B. mandrillaris cysts, preformed cysts, 12% galactose induction medium, 72 h
[23] = preformed cysts, 12% galactose induction medium, read-out: IC50, B. mandrillaris cysts
[24] = 3.5 µM for 72 h, then drug-free coculture with HFF-1, 28-day experiment
[25] = 7 µM for 72 h, then drug-free coculture with HFF-1, 28-day experiment
[26] = 14 µM for 72 h, then drug-free coculture with HFF-1, 28-day experiment
[27] = 28 µM for 72 h, then drug-free coculture with HFF-1, NRT = no recovery of trophozoites or host cell destruction observed through 28 days
[28] = 56 µM for 72 h, then drug-free coculture with HFF-1, 28-day experiment

O=[N+]([O-])c1ccc(O)c2ncccc12 [Nitroxoline, 8-hydroxy-5-nitroquinoline]
IC50 [1]: 7 µM
Percent inhibition of B. mandrillaris viability ([2]; Fig S2A, nitroxoline 0.5 µM alone): -4%
Percent inhibition of B. mandrillaris viability ([2]; Fig S2A, nitroxoline 2 µM alone): 28%
Percent inhibition of B. mandrillaris viability ([2]; Fig S2A, nitroxoline 2.5 µM alone): 31%
Percent inhibition of B. mandrillaris viability ([2]; Fig S2A, nitroxoline 3 µM alone): 34%
Percent inhibition of B. mandrillaris viability ([2]; Fig S2A, nitroxoline 5 µM alone): 92%
Percent inhibition of B. mandrillaris viability ([2]; Fig S2A, nitroxoline 10 µM alone): 93%
Percent inhibition of B. mandrillaris viability ([2]; Fig S2B, nitroxoline 0.5 µM alone): 0%
Percent inhibition of B. mandrillaris viability ([2]; Fig S2B, nitroxoline 2 µM alone): 28%
Percent inhibition of B. mandrillaris viability ([2]; Fig S2B, nitroxoline 2.5 µM alone): 33%
Percent inhibition of B. mandrillaris viability ([2]; Fig S2B, nitroxoline 3 µM alone): 32%
Percent inhibition of B. mandrillaris viability ([2]; Fig S2B, nitroxoline 5 µM alone): 91%
Percent inhibition of B. mandrillaris viability ([2]; Fig S2B, nitroxoline 10 µM alone): 92%
IC99, B. mandrillaris trophozoite viability [3]: 7.54 µM
IC50 [3, 21]: 2.8 µM
IC50 ([3]; read-out: IC50, B. mandrillaris trophozoites): 2.84 µM
CC50 at 72 h [4]: 5.6 µM
IC50 [5, 22]: 15.5 µM
IC50 [5, 23]: 15.5 µM
IC50 [6]: > 30 µM
CC50 at 72 h [7]: 51.8 µM
maximal plasma concentrations (Cmax) [8]: ~5600 ng/mL
Cmax ([8]; read-out: maximal plasma concentrations (Cmax)): ~30 µM
IC50 [9]: 4.77 µM
CC50 at 72 h [10]: 19.3 µM
CC50 at 72 h [11]: 4.9 µM
IC50 [12]: 11 µM
Mean no. of days for host cell clearance ± SE [13, 24]: 15.33 ± 0.67 days
Mean no. of days for host cell clearance ± SE [13, 25]: 19 ± 0.58 days
Mean no. of days for host cell clearance ± SE [13, 26]: 22 ± 2.08 days
Mean no. of days for host cell clearance ± SE [13, 27]: NRT^a
concentration that completely eliminated B. mandrillaris populations [13]: 28 µM
protection of human brain tissue explants [14]: do not show signs of tissue damage or loss of cell density
inhibition at 20 µM [15]: 100%
CC50 at 72 h [16]: 24.9 µM
encystment response [17]: increase in both the total number and the proportion of cysts
efficacy against gliomas [18]: exhibits efficacy against gliomas in mice
CC50 at 72 h [19]: 9.3 µM

N=C(N)c1ccc(OCCCCCOc2ccc(C(=N)N)cc2)cc1 [Pentamidine isethionate]
IC50 [1]: 8 µM
Percent inhibition of B. mandrillaris viability ([2]; Fig S2B, pentamidine 1 µM alone): -1%
Percent inhibition of B. mandrillaris viability ([2]; Fig S2B, pentamidine 5 µM alone): 32%
Percent inhibition of B. mandrillaris viability ([2]; Fig S2B, pentamidine 10 µM alone): 51%
Percent inhibition of B. mandrillaris viability ([2]; Fig S2B, pentamidine 20 µM alone): 62%
Percent inhibition of B. mandrillaris viability ([2]; Fig S2B, pentamidine 50 µM alone): 68%
Percent inhibition of B. mandrillaris viability ([2]; Fig S2B, pentamidine 100 µM alone): 82%
IC50 [3, 21]: 9.1 µM
CC50 at 72 h [4]: 5.7 µM
IC50 [5, 22]: 26.3 µM
IC50 [5, 23]: 26.3 µM
inhibition of amoebic growth [20]: amoebicidal or amoebistatic activity
IC50 [6]: > 30 µM
CC50 at 72 h [7]: 23.4 µM
CC50 at 72 h [10]: 11.1 µM
CC50 at 72 h [11]: 4.8 µM
IC50 [12]: 11 µM
Mean no. of days for host cell clearance ± SE [13, 24]: 1.33 ± 0.33 days
Mean no. of days for host cell clearance ± SE [13, 25]: 7 ± 1.15 days
Mean no. of days for host cell clearance ± SE [13, 26]: 13 ± 2.51 days
Mean no. of days for host cell clearance ± SE [13, 27]: 15.33 ± 2.56 days
Mean no. of days for host cell clearance ± SE [13, 28]: 16 ± 2 days
inhibition at 20 µM [15]: 35%
CC50 at 72 h [16]: 20.7 µM
encystment response [17]: increase in both the total number and the proportion of cysts
CC50 at 72 h [19]: 0.7 µM

CCCCCCCCCCCCCCCCOP(=O)([O-])OCC[N+](C)(C)C [Miltefosine]
Percent inhibition of B. mandrillaris viability ([2]; Fig S2A, miltefosine 10 µM alone): -12%
Percent inhibition of B. mandrillaris viability ([2]; Fig S2A, miltefosine 30 µM alone): -13%
Percent inhibition of B. mandrillaris viability ([2]; Fig S2A, miltefosine 50 µM alone): 19%
Percent inhibition of B. mandrillaris viability ([2]; Fig S2A, miltefosine 60 µM alone): 44%
Percent inhibition of B. mandrillaris viability ([2]; Fig S2A, miltefosine 80 µM alone): 91%
Percent inhibition of B. mandrillaris viability ([2]; Fig S2A, miltefosine 100 µM alone): 96%
IC50 [3, 21]: 63.2 µM
CC50 at 72 h [4]: 8.4 µM
IC50 [5, 22]: 76.5 µM
IC50 [5, 23]: 76.5 µM
inhibition of amoebic growth [20]: amoebicidal or amoebistatic activity
CC50 at 72 h [7]: 67.1 µM
CC50 at 72 h [10]: 49 µM
CC50 at 72 h [11]: 68.8 µM
Mean no. of days for host cell clearance ± SE [13, 27]: 1.5 ± 0.33 days
Mean no. of days for host cell clearance ± SE [13, 28]: 3.5 ± 2.64 days
Mean no. of days for host cell clearance ± SE ([13]; 84 µM for 72 h, incomplete recovery of trophozoites and destruction of host cells on day 28): >28^b days
concentration that completely eliminated B. mandrillaris populations [13]: 112 µM
Mean no. of days for host cell clearance ± SE ([13]; […] for 72 h, NRT = no recovery of trophozoites or host cell destruction observed through 28 days): NRT^a
CC50 at 72 h [16]: 34.7 µM
encystment response [17]: no substantial number of cysts was observed at any concentration
CC50 at 72 h [19]: 66.1 µM

— paper PMC6212833 (mBio, 2018)
